In patent US8834843B2, “Imaging method” (GE Healthcare Limited, priority 2007, dated 2014):
Like-named read-outs stand apart in the source and are kept apart here. Numbered stars: 1 amine (or outer) side, 2 acyl side, 3 side chain; on linkers, the order of the positions; unused ones are H or OH. Bridge positions count the residues as written; N and C are the ends. Side chains are listed from the residue outwards. Peptide text beside a SMILES is read from it. * marks the point of attachment. X1 = C/C(=N\O)C(C)(C)NCCC(CCNC(C)(C)/C(C)=N/O)CCN*; Glutaryl = O=C(CCCC(=O)[*:2])[*:1]; X2 = NC(=O)COCC(=O)NCCOCCOCCOCCN*

Assays:
[1] = Biodistribution in sham-operated rats with and without excess cold compound; format: in vivo; details: male, Sprague Dawley, rat, iv, total radioactivity, 15 days post-op, 1 hour post-injection; for dose excreted at 1 h: bile and urine
Experimental: On the appropriate day post surgery BDL and sham animals were removed and put under isoflurane anaesthesia, then each animal was injected with 0.3 ml intravenously (i.v.) via tail vein (˜3MBq). At the appropriate time point post-injection of the test item, each animal was re-anaesthetised with isoflurane, sacrificed by cervical dislocation weighed and the weight recorded via a barcode scanning system. Each animal was dissected and the following organs and tissues were removed and counted using BASIL counter protocol 40 or manual counting:
The recorded activity in a whole organ (e.g., liver) was corrected for background radioactivity and for radioactive decay and the biodistribution of radioactivity calculated by reference to Formula I:
[formula] where: • A=counts per second measured in organ • B=total counts per second measured in all samples (excluding the injection site)
The percentage of injected radioactivity in the weighed tissue samples (e.g., blood) was calculated to give % i.d. in the entire tissue by reference to Formula 2:
[formula] where: • Zs=counts per second in sample • Ws=weight of sample in grams • Wb=weight of animal in grams immediately after sacrifice • B=total counts per second measured in all the samples (excluding the injection site) • F=tissue specific factor representing the mass of the tissue as a proportion of the total body weight of the animal
The biodistribution of radioactivity was investigated in 15 days post-operatively in BDL and sham-operated male Sprague Dawley rats (procedures described in Example 3) 1 hour following of intravenous injection via tail vein of ˜3 MBq of Compound 8, both before and after addition of 1:100 and 1:10,000 fold excess of cold Compound 8. At the appropriate time point post-injection of the test Item, each animal was re-anaesthetised with isoflurane, sacrificed by cervical dislocation and weighed. Each animal was dissected and organs and tissues (see Tables 5 and 6 below) were removed and counted using BASIL counter protocol 40 or manual counting.

[2] = tested on: Integrins on Stellate Cell Membranes; test: Binding to integrins on stellate cell membranes (125I-echistatin competition); design: species or system rat; details: cold compound vs 125I-echistatin, 37° C. for 60 min; read-out: Ki in the activated stellate cell membrane assay
Experimental: An activated rat liver stellate cell line (immortalized) was a kind gift from Professor Trond Berg at University of Oslo. The cells were grown in 150 mm culture flasks to confluence in Dulbeccos modified Eagels medium containing 10% FBS, glutamine and Penicillin/Streptomycin.
The cells were washed twice in ice cold PBS, pH 7.4, added 10 ml PBS and scraped off with a rubber policeman and transferred to a 50 ml vial on ice. Another 10 ml PBS were added to the flasks, scraped and combined with the first cells. The cells were centrifuged at 2000 rpm at 4° C. for 10 min. The supernatant was poured off and the pellet resuspended in 3 ml PBS. All pellets were combined into one tube, centrifuged as above and the final pellet frozen at −70° C. immediately.
The cell pellets were resuspended in ice-cold homogenization buffer (10 times the amount of cells, for example 2 g pellet to 20 ml homogenization buffer) containing 50 mM Tris-HCl, 5 mM MgCl2, 1 mM EGTA, pH7.4 and in addition protease inhibitors 10 ug/ml leupeptin, 10 ug/ml pepstatin, 200 ug/ml Bacitracin, 0.5 ug/ml aprotinin and 100 uM PMSF. […]
An experiment was set up in a 96-well plate. […] This filterspot was cut off and added a tube that finally was counted in a gamma-counter. […]

dose excreted at 1 h ([1]; +10K-fold excess cold Compound 8): 46.5%
dose excreted at 1 h ([1]; +100-fold excess cold Compound 8): 43.2%
dose excreted at 1 h ([1]; no excess): 44.6%
tissue uptake dose at 1 h ([1]; blood, +10K-fold excess cold Compound 8, read-out: Activity in Blood, Mean): 1.4 %ID
tissue uptake dose at 1 h ([1]; blood, +100-fold excess cold Compound 8, read-out: Activity in Blood, Mean): 1.37 %ID
tissue uptake dose at 1 h ([1]; blood, no excess, read-out: Activity in Blood, Mean): 1.55 %ID
tissue uptake dose at 1 h ([1]; bone, 3 MBq, +10K-fold excess cold Compound 8, read-out: Activity in Bone, Mean): 2.42 %ID
tissue uptake dose at 1 h ([1]; bone, 3 MBq, +100-fold excess cold Compound 8, read-out: Activity in Bone, Mean): 3.06 %ID
tissue uptake dose at 1 h ([1]; bone, 3 MBq, no excess, read-out: Activity in Bone, Mean): 3.1 %ID
tissue uptake dose at 1 h ([1]; carcass, 3 MBq, +10K-fold excess cold Compound 8, read-out: Activity in Carcass, Mean): 11.6 %ID
tissue uptake dose at 1 h ([1]; carcass, 3 MBq, +100-fold excess cold Compound 8, read-out: Activity in Carcass, Mean): 9.32 %ID
tissue uptake dose at 1 h ([1]; carcass, 3 MBq, no excess, read-out: Activity in Carcass, Mean): 8.45 %ID
tissue uptake dose at 1 h ([1]; heart, 3 MBq, +10K-fold excess cold Compound 8, read-out: Activity in Heart, Mean): 0.1 %ID
tissue uptake dose at 1 h ([1]; heart, 3 MBq, +100-fold excess cold Compound 8, read-out: Activity in Heart, Mean): 0.1 %ID
tissue uptake dose at 1 h ([1]; heart, 3 MBq, no excess, read-out: Activity in Heart, Mean): 0.12 %ID
tissue uptake dose at 1 h ([1]; injection site, 3 MBq, +10K-fold excess cold Compound 8, read-out: Activity in Injection Site, Mean): 1.71 %ID
tissue uptake dose at 1 h ([1]; injection site, 3 MBq, +100-fold excess cold Compound 8, read-out: Activity in Injection Site, Mean): 1.44 %ID
tissue uptake dose at 1 h ([1]; injection site, 3 MBq, no excess, read-out: Activity in Injection Site, Mean): 1.66 %ID
tissue uptake dose at 1 h ([1]; kidneys, +10K-fold excess cold Compound 8, read-out: Activity in Kidneys, Mean): 3.65 %ID
tissue uptake dose at 1 h ([1]; kidneys, +100-fold excess cold Compound 8, read-out: Activity in Kidneys, Mean): 4.13 %ID
tissue uptake dose at 1 h ([1]; kidneys, no excess, read-out: Activity in Kidneys, Mean): 4.07 %ID
tissue uptake dose at 1 h ([1]; liver, 3 MBq, +10K-fold excess cold Compound 8, read-out: Activity in Liver, Mean): 3.03 %ID
tissue uptake dose at 1 h ([1]; liver, 3 MBq, +100-fold excess cold Compound 8, read-out: Activity in Liver, Mean): 3.52 %ID
tissue uptake dose at 1 h ([1]; liver, 3 MBq, no excess, read-out: Activity in Liver, Mean): 3.71 %ID
tissue uptake dose at 1 h ([1]; lung, 3 MBq, +10K-fold excess cold Compound 8, read-out: Activity in Lung, Mean): 0.39 %ID
tissue uptake dose at 1 h ([1]; lung, 3 MBq, +100-fold excess cold Compound 8, read-out: Activity in Lung, Mean): 0.38 %ID
tissue uptake dose at 1 h ([1]; lung, 3 MBq, no excess, read-out: Activity in Lung, Mean): 0.46 %ID
tissue uptake dose at 1 h ([1]; muscle, 3 MBq, +100-fold excess cold Compound 8, read-out: Activity in Muscle, Mean): 10.9 %ID
tissue uptake dose at 1 h ([1]; muscle, 3 MBq, no excess, read-out: Activity in Muscle, Mean): 10.4 %ID
tissue uptake dose at 1 h ([1]; muscle, +10K-fold excess cold Compound 8, read-out: Activity in Muscle, Mean): 8.41 %ID
tissue uptake dose at 1 h ([1]; skin, 3 MBq, +10K-fold excess cold Compound 8, read-out: Activity in Skin, Mean): 12.7 %ID
tissue uptake dose at 1 h ([1]; skin, 3 MBq, +100-fold excess cold Compound 8, read-out: Activity in Skin, Mean): 14 %ID
tissue uptake dose at 1 h ([1]; skin, 3 MBq, no excess, read-out: Activity in Skin, Mean): 14.4 %ID
tissue uptake dose at 1 h ([1]; small and large intestine, 3 MBq, +10K-fold excess cold Compound 8, read-out: Activity in Small & Large Intestine, Mean): 7.54 %ID
tissue uptake dose at 1 h ([1]; small and large intestine, 3 MBq, +100-fold excess cold Compound 8, read-out: Activity in Small & Large Intestine, Mean): 8.42 %ID
tissue uptake dose at 1 h ([1]; small and large intestine, 3 MBq, no excess, read-out: Activity in Small & Large Intestine, Mean): 7.86 %ID
tissue uptake dose at 1 h ([1]; spleen, 3 MBq, +10K-fold excess cold Compound 8, read-out: Activity in Spleen, Mean): 0.27 %ID
tissue uptake dose at 1 h ([1]; spleen, 3 MBq, +100-fold excess cold Compound 8, read-out: Activity in Spleen, Mean): 0.29 %ID
tissue uptake dose at 1 h ([1]; spleen, 3 MBq, no excess, read-out: Activity in Spleen, Mean): 0.29 %ID
tissue uptake dose at 1 h ([1]; stomach, 3 MBq, +10K-fold excess cold Compound 8, read-out: Activity in Stomach, Mean): 1.92 %ID
tissue uptake dose at 1 h ([1]; stomach, 3 MBq, +100-fold excess cold Compound 8, read-out: Activity in Stomach, Mean): 1.21 %ID
tissue uptake dose at 1 h ([1]; stomach, 3 MBq, no excess, read-out: Activity in Stomach, Mean): 0.9 %ID
tissue uptake dose at 1 h ([1]; thyroid, 3 MBq, +10K-fold excess cold Compound 8, read-out: Activity in Thyroid, Mean): 0.04 %ID
tissue uptake dose at 1 h ([1]; thyroid, 3 MBq, +100-fold excess cold Compound 8, read-out: Activity in Thyroid, Mean): 0.05 %ID
tissue uptake dose at 1 h ([1]; thyroid, 3 MBq, no excess, read-out: Activity in Thyroid, Mean): 0.05 %ID
SMILES: C/C(=N\O)C(C)(C)NCCC(CCNC(=O)CCCC(=O)NCCCC[C@@H]1NC(=O)CSC[C@@H](C(=O)NCCOCCOCCOCCNC(=O)COCC(N)=O)NC(=O)[C@H](Cc2ccccc2)NC(=O)[C@@H]2CSSC[C@H](NC1=O)C(=O)N[C@@H](CCCNC(=N)N)C(=O)NCC(=O)N[C@@H](CC(=O)O)C(=O)N2)CCNC(C)(C)/C(C)=N/O (stereo partly shown) [Compound 8] ({CH2CO}-K([Glutaryl-X1])CRGDCFC-X2; disulfide 2-6; thioether N-8)
Ki [2]: 56 nM
